# Measurements from article PMC6930675, “Discovery and Characterisation of Dual Inhibitors of Tryptophan 2,3-Dioxygenase (TDO2) and Indoleamine 2,3-Dioxygenase 1 (IDO1) Using Virtual Screening” (Molecules, 2019).
# “And” between values parts separate entries of the source, which are not always exact repeats. Equal entries are not always repeated.
# Key:
# TDO2 = tested on: TDO2; design: method as in PMID 27096472, PMID 28105265, PMID 26348881, PMID 22616902; conditions: cited from earlier work; for IC50: test library, read-out: IC50 (TDO2 active compounds of the test library)
# IDO1 (SKOV3 cells) = biological target: T1, IDO1 (SKOV3 cells) (Homo sapiens, UniProt P14902); assay: Cell based kynurenine assay in SKOV3 ovarian line (IDO1 expressor); conditions: for IC50: SKOV3 (IDO1), 18 h, read-out: IC50, inhibition of kynurenine secretion
# T1 construct: identify cell lines endogenously expressing only IDO1, only TDO2, and both enzymes simultaneously; endogenous in cells; host or cells: SKOV3 ovarian cancer cell line
# Experimental: (§1) Breast cancer cell lines MCF7, MDA-MB-231, BT549, Hs578T; ovarian cell line SKOV3; glioblastoma cell line A172 and lung cancer cell line H460 were grown in α-MEMGibco, Grand Island, NY, USA; ThermoFisher catalogue number 12000022) containing 5% foetal calf serum (Moregate Biotech, Hamilton, New Zealand), insulin/transferrin/selenium supplement (Roche, Ref-11074547001), added according to the manufacturer’s instructions, as well as penicillin/streptomycin (100 U/mL and 100 μg/mL, respectively). The amount of kynurenine produced by the cells was measured as described previously. Briefly, a well of a 96-well plate received 3.7 × 10^4 cells which were subsequently cultured with the addition of 50 μM ([…] and SKOV3 cells) or 100 μM (A172 cells) of L-tryptophan (Sigma-Aldrich, St Louis, MO, USA) with or without test compounds at 37 °C, 5% CO2 for 18 h. The cell number seeded was optimised to produce levels of kynurenine <40% of initial tryptophan to avoid tryptophan starvation and to ensure steady-state IDO1/TDO2 kinetics. Next, the culture supernatants were transferred into a fresh 96-well plate, incubated with trichloroacetic acid (10% final concentration) for 20 min at 60 °C to release kynurenine from the cells and precipitate proteins. After spinning the plates for 20 min at 2500 g, the supernatants were mixed at a 1:1 ratio with 4-(dimethylamino)benzaldehyde (20 mg/mL in acetic acid; Sigma) and the absorbance was read at 480 nm on an EnSpire 2300 Multimode Plate Reader (Perkin-Elmer, Singapore, Singapore). The remaining cells in the 96-well plate received a well-established indicator of cellular metabolic activity WST-1 (Roche Diagnostics Cat No 05015944, Basel, Switzerland; 10% diluted in culture media). After 1 h of incubation at 37 °C, the absorbance was measured at 440 nm. WST-1 is reduced on the outer membrane of viable cells to a soluble formazan by reducing equivalents such as NAD(P)H. The absorbance measured at 440 nm indicates the number of metabolically active cells in the culture and represents a surrogate marker of cell viability.
# (§2) All experiments were repeated independently at least twice in technical quadruplicates. Calculations and graph plotting were performed in Prism (v8, 2018; GraphPad software, San Diego, CA, USA) and R computing environment (v3.5.3, 2019, 64-bit, Vienna, Austria). IC50 of the compounds in cellular enzymatic activity compared to untreated control cells was determined by fitting data to an equation f(x) = A + B/(1 + (IC50/X)^HILL) in Prism; where A is the minimum and B is the maximum of the curve, HILL is the slope of the curve and X is the compound concentration.
# [1] = tested on: IDO1/TDO2 (SKOV3 and BT549 cell lines); assay: Single-concentration test of virtual hits for inhibition of kynurenine secretion in SKOV3 and BT549; assay type: cell-based, human; conditions: 20 µM
# Experimental: as §1, with “Next, the culture supernatants were transferred into a fresh 96-well plate, incubated with trichloroacetic acid (10% final concentration) for 20 min at 60 °C to release kynurenine from the cells and precipitate proteins.” left out, “The remaining cells in the 96-well plate received a well-established indicator of cellular metabolic activity WST-1 (Roche Diagnostics Cat No 05015944, Basel, Switzerland; 10% diluted in culture media).” left out
# as §2, with “Calculations and graph plotting were performed in Prism (v8, 2018; GraphPad software, San Diego, CA, USA) and R computing environment (v3.5.3, 2019, 64-bit, Vienna, Austria).” left out
# IDO1/TDO2 (BT549 cells) = assay: Cell based kynurenine assay in BT549 breast line (dual IDO1/TDO2 expressor); design: species or system human
# Experimental: (§3) Breast cancer cell lines MCF7, MDA-MB-231, BT549, Hs578T; ovarian cell line SKOV3; glioblastoma cell line A172 and lung cancer cell line H460 were grown in α-MEMGibco, Grand Island, NY, USA; ThermoFisher catalogue number 12000022) containing 5% foetal calf serum (Moregate Biotech, Hamilton, New Zealand), insulin/transferrin/selenium supplement (Roche, Ref-11074547001), added according to the manufacturer’s instructions, as well as penicillin/streptomycin (100 U/mL and 100 μg/mL, respectively). The amount of kynurenine produced by the cells was measured as described previously. […] After spinning the plates for 20 min at 2500 g, the supernatants were mixed at a 1:1 ratio with 4-(dimethylamino)benzaldehyde (20 mg/mL in acetic acid; Sigma) and the absorbance was read at 480 nm on an EnSpire 2300 Multimode Plate Reader (Perkin-Elmer, Singapore, Singapore). […] After 1 h of incubation at 37 °C, the absorbance was measured at 440 nm. WST-1 is reduced on the outer membrane of viable cells to a soluble formazan by reducing equivalents such as NAD(P)H. The absorbance measured at 440 nm indicates the number of metabolically active cells in the culture and represents a surrogate marker of cell viability. […]
# TDO2 (A172 cells) = biological target: T2, TDO2 (A172 cells) (Homo sapiens, UniProt P48775); assay: Cell based kynurenine assay in A172 glioblastoma line (TDO2 expressor); conditions: 18 h, read-out: IC50, inhibition of kynurenine secretion
# T2 construct: identify cell lines endogenously expressing only IDO1, only TDO2, and both enzymes simultaneously; endogenous in cells; host or cells: A172 glioblastoma cell line
# Experimental: as §3
# [2] = tested on: BT549 and SKOV3 cell lines; assay: WST-1 assay of cellular metabolic activity / cell viability; assay type: cell-based, human; conditions: 20 µM; asterisks in Figure 6A
# Experimental: Breast cancer cell lines MCF7, MDA-MB-231, BT549, Hs578T; ovarian cell line SKOV3; glioblastoma cell line A172 and lung cancer cell line H460 were grown in α-MEMGibco, Grand Island, NY, USA; ThermoFisher catalogue number 12000022) containing 5% foetal calf serum (Moregate Biotech, Hamilton, New Zealand), insulin/transferrin/selenium supplement (Roche, Ref-11074547001), added according to the manufacturer’s instructions, as well as penicillin/streptomycin (100 U/mL and 100 μg/mL, respectively). The amount of kynurenine produced by the cells was measured as described previously. […] After spinning the plates for 20 min at 2500 g, the supernatants were mixed at a 1:1 ratio with 4-(dimethylamino)benzaldehyde (20 mg/mL in acetic acid; Sigma) and the absorbance was read at 480 nm on an EnSpire 2300 Multimode Plate Reader (Perkin-Elmer, Singapore, Singapore). […] After 1 h of incubation at 37 °C, the absorbance was measured at 440 nm. WST-1 is reduced on the outer membrane of viable cells to a soluble formazan by reducing equivalents such as NAD(P)H. The absorbance measured at 440 nm indicates the number of metabolically active cells in the culture and represents a surrogate marker of cell viability.
# T1 sequence (P14902 whole entry): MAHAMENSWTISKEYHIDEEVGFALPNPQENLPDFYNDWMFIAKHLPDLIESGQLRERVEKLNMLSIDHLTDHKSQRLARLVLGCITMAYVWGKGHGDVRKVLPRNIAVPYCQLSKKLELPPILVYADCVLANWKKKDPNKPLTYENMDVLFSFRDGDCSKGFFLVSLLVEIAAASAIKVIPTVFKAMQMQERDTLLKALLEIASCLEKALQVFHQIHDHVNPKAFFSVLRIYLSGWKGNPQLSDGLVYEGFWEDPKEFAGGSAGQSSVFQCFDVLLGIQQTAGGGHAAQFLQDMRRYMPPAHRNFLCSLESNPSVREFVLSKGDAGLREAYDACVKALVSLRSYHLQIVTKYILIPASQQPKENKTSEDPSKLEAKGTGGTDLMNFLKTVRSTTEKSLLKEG
# T2 sequence (P48775 whole entry): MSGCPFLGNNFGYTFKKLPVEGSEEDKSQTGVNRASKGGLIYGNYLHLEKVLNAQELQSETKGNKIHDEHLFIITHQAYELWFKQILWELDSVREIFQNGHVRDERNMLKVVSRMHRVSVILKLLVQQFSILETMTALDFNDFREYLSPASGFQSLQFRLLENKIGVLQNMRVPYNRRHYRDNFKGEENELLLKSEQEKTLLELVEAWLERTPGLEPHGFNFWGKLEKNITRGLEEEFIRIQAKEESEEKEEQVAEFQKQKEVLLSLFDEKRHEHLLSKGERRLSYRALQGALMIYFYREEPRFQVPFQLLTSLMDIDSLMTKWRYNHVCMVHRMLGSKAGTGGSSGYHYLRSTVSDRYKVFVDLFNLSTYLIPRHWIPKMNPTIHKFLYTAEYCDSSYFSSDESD
smiles,measurement,setting,value
CC1c2cc(-c3c[nH]c4cc(F)ccc34)ccc2S(=O)(=O)N1CC(N)=O (centres unmarked) [1a],IC50,TDO2,26 nM
C[C@H]1NS(=O)(=O)c2ccc(-c3c[nH]c4cc(F)ccc34)cc21 [1b],IC50,TDO2,27 nM
O=S1(=O)NC(CO)c2cc(-c3c[nH]c4cc(F)ccc34)ccc21 (centres unmarked) [1d],IC50,TDO2,43 nM
O=C1c2ccccc2C(=O)c2c1nnn2Cc1cccc(C(=O)N2CCOCC2)c1 [1e],IC50,TDO2,48 nM
Nc1cccc(-c2c[nH]nn2)c1 [2a],Activity class in the TDO2 test library,TDO2,inactive
Brc1cccc(-c2c[nH]nn2)c1 [2b],Activity class in the TDO2 test library,TDO2,inactive
FC(F)(F)c1cc(-c2c[nH]nn2)ccn1 [2c],Activity class in the TDO2 test library,TDO2,inactive
O=C1Nc2ccccc2/C1=N\Nc1nc2ccccc2s1 [2d],Activity class in the TDO2 test library,TDO2,inactive
O=C(CC1(O)C(=O)Nc2c(Cl)cc(Cl)cc21)c1ccc(Cl)cc1 (centres unmarked) [2e],Activity class in the TDO2 test library,TDO2,inactive
Nc1nonc1/C(=N/O)Nc1ccc(F)c(Cl)c1 [5L],"Inhibition of kynurenine production, in words","IDO1 (SKOV3 cells); SKOV3, at 1 µM",completely inhibited
Fc1ccc2c(/C=C\c3cccnc3)c[nH]c2c1 [680C91],"Effect on kynurenine production, in words",IDO1 (SKOV3 cells); SKOV3,barely affected
COc1ccccc1C(=O)CC(=O)c1ccc(C)cc1O [TD12],Inhibition of kynurenine secretion,[1],50% ± 20
Cc1ccc(C(=O)CC(=O)c2ccccc2OC(C)C)c(O)c1 [TD18],IC50,IDO1 (SKOV3 cells),28.9 µM
same,Inhibition of kynurenine secretion,[1],50% ± 20
CC1=C(CC(=O)c2sccc2Br)C(=O)c2ccccc2C1=O [TD34],IC50,IDO1 (SKOV3 cells),47.3 µM and ~40 µM
same,IC50,"IDO1/TDO2 (BT549 cells); BT549 (IDO1/TDO2), 18 h, read-out: IC50, inhibition of kynurenine secretion",3.42 µM
same,Fold higher potency in BT549 than in A172 and SKOV3,IDO1/TDO2 (BT549 cells); BT549 versus A172 / SKOV3,more than 10 fold
same,IC50,TDO2 (A172 cells),37.7 µM and ~40 µM
same,"Inhibition of kynurenine production, in words",[1],inhibited kynurenine production
same,Toxicity to the BT549 and SKOV3 cell lines,[2],absence of cell toxicity
